Laboratory results taken from patent US11786535B1, “Methods of inhibiting cyclooxygenase” (KING FAISAL UNIVERSITY, priority 2023, dated 2023).

How the values were obtained:
COX-2 = COX-2 (Homo sapiens (Human), UniProt P35354); assay: COX inhibitor screening assay kit, COX-2; assay type: biochemical; settings: for SI (selectivity index): calculated from COX-1 and COX-2 IC50; for IC50: three separate experiments
Procedure: (§1) In test tubes, 25 mM Tris-HCl, pH 8.0, containing 5 mM EDTA, phenol, and 1 mM hematin was added. The test compounds were dissolved in DMSO and added in concentrations ranging from […] Dimethyl sulfoxide alone was applied to control test containers. COX-1 or COX-2 enzymes were added to the test tubes, which were then preincubated for 10 minutes at 37° C. The arachidonic acid substrate was added, and the tubes were further incubated at 37° C. for 2 minutes. The compound's immunochemical assay was used to calculate the amount of prostaglandin produced.
(§2) Three separate experiments were used to calculate the IC50 values. The selectivity index was calculated as follows: […]

COX-1 = COX-1 (Ovis aries, UniProt P05979); assay: COX inhibitor screening assay kit, COX-1; assay type: biochemical; settings: three separate experiments
Procedure: as §1, §2

Sequence of COX-2 (P35354 18-604): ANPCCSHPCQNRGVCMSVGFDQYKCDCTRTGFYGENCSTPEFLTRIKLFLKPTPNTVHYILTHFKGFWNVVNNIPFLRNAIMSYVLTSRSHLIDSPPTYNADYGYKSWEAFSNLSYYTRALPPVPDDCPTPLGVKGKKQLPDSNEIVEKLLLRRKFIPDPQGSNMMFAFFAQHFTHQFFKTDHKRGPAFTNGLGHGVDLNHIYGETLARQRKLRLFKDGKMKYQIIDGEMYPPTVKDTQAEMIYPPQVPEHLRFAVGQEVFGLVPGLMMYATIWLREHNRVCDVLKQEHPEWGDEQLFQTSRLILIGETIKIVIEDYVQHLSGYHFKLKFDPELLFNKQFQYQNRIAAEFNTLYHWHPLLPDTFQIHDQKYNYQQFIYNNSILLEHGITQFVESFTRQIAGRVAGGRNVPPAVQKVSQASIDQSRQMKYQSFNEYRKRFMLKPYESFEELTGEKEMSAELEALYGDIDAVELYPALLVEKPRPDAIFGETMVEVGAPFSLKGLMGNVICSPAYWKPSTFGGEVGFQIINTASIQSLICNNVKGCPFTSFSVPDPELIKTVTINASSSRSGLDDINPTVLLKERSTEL
Sequence of COX-1 (P05979 25-600 limits assumed): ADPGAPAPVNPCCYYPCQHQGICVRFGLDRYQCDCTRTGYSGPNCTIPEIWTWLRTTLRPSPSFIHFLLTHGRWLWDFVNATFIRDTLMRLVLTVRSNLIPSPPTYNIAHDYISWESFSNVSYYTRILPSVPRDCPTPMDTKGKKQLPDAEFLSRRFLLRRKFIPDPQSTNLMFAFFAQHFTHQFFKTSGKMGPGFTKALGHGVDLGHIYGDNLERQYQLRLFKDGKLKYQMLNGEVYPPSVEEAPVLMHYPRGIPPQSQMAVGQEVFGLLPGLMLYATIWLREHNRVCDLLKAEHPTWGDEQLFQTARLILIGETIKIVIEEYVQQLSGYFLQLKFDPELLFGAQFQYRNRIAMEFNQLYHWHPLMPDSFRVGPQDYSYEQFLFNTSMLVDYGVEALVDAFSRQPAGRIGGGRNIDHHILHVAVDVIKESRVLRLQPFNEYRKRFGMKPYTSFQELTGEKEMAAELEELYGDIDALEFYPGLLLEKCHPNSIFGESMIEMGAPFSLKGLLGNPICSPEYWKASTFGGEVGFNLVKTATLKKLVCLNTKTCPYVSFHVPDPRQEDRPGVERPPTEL

SMILES	SI (selectivity index) (COX-2)	IC50 (COX-2) [µM]	IC50 (COX-1) [µM]
COc1ccc(CN(Cc2ccc(F)cc2)CC2CCCO2)cc1CO (stereo not drawn) [Compound 1]	36.3	0.21 ± 0.01	7.62 ± 0.05
COc1cccc(-c2nn(-c3ccccc3)cc2CN(C)CCc2cn[nH]c2)c1 [Compound 2, N-{[3-(3-methoxyphenyl)-1-phenyl-1H-pyrazol-4-yl]methyl}-N-methyl-2-(1H-pyrazol-4-yl)ethanamine]	132.64	0.08 ± 0.009	10.6 ± 0.33
O=C(O)CC1COCCN1Cc1cccc(-c2ccccn2)c1 (stereo not drawn) [Compound 3, {4-[3-(2-pyridinyl)benzyl]-3-morpholinyl}acetic acid]	190.88	0.06 ± 0.075	11.5 ± 0.13
O=C(O)COc1ccc(Cl)cc1C1CC(=O)Nc2cc3[nH]ncc3cc21 (stereo not drawn) [Compound 4, [4-chloro-2-(7-oxo-5,6,7,8-tetrahydro-1H-pyrazole[4,3-g]quinoline-5-yl)phenoxy]acetic acid]	95.068	0.097 ± 0.015	9.19 ± 0.046
